Our source for the melting point values is a melting point compilation (Tetko et al.; mined from patent text by program, amines drawn as free bases though some values may be those of a salt).

The melting point is the temperature of the solid-liquid transition.

Structures are written as SMILES.

`CCOC(=O)C(=CNC1CC1)C(=O)c1cc(F)c(F)c(Br)c1F` had a melting point of 74 to 76 °C.

In turn, `CCc1cnc(N2CCN(C(=O)OC(C)(C)C)CC2)nc1` came in with a melting point of 67 to 68 °C.

`CC(C)c1c(C=C(Cl)Cl)c(-c2ccc(F)cc2)n2c1CCCC2` gave a melting point of 97 to 98 °C.

Consider `C[C@@H](COC(F)(F)C(F)F)[C@](O)(Cn1cncn1)c1ccc(F)cc1F`, for which the melting point turned out to be 148 °C.

`Cn1cc(-c2ccncn2)ccc1=O` yielded a melting point of 147 to 149 °C.

`CS(=O)(=O)c1ccc(-c2[nH]nc(C(=O)CCCO[N+](=O)[O-])c2C2CCCCC2)cc1`: the melting point was 122 to 124 °C.

On to `O=C1c2cc([N+](=O)[O-])ccc2-n2c1nc1ccccc1c2=O`, for which the melting point was in the range of 302 to 303 °C.

In the case of `CCOC(=O)c1ncc2[nH]c3cccc(CO)c3c2c1COC`, the melting point was in the range of 139 to 140 °C.

Regarding `CC(C)N(C(=S)Nc1ccccc1[N+](=O)[O-])C1CCN(CCc2ccccc2)CC1`, the melting point was 101 °C.

Take `Cc1ccc(-n2nc(C(F)F)cc2-c2ccc(S(C)(=O)=O)c(F)c2)cc1Cl`: the melting point lay in the range of 146 to 147 °C.

Compound `COc1cc(N)ccc1-c1cnc(C)s1` gave a melting point of 125 to 129 °C.

`COC(=O)C(C)c1ccc2nc(-c3ccc(Cl)cc3)ccc2c1` (stereo not given) registered a melting point of 114 to 115 °C.

On to `COc1ccc(Br)cc1-c1ccc2nonc2c1`, for which the melting point lay in the range of 135 to 137 °C.

The compound `CC(=O)OCC(=O)NCCCn1c(-c2ccc(Br)cc2)csc1=Nc1ccccc1` had a melting point of 156 to 159 °C.

In the case of `COCCn1cc(C(=O)C(F)(F)F)c2c(Cl)cccc21`, the melting point lay in the range of 57 to 59 °C.

As to `CNC(=O)NC(=O)C(CC1CCCC1)c1ccc(-c2cccc3ccccc23)cc1` (stereo not given), the melting point is 85 to 88 °C.

For `CCOC(=O)c1c(-c2cccc([N+](=O)[O-])c2)cc(-c2ccccc2)nc1C`, the melting point lay in the range of 110 to 112 °C.

`CN1C(=O)CC[C@]2(C)c3ccc(-c4c(F)c(F)c(F)c(F)c4F)cc3CC[C@@H]12` displayed a melting point of 92 to 100 °C.

`COC1=CC2=CCC3C(CCC4(C)C(=O)CC(OC(C)=O)C34)C2(C)CC1` (stereo not given) registered a melting point of 209 °C.

The compound `COc1ccc(C=O)cc1CS(=O)(=O)O` returned a melting point of 54 °C.

For the compound `COCC(C)(C)c1cc(N)no1`, the melting point lay in the range of 96 to 99 °C.

`COc1cccc(-c2c3c(cc4ccc(O)cc24)-c2ccc(O)cc2CO3)c1` yielded a melting point of 220 to 223 °C.

`CCCCCCCCCCCCCCCCOCC1=CCCO1` displayed a melting point of 30.5 to 31.5 °C.

As for `CCOC(=O)c1cnc2c(SC(=O)N3CCN(c4ccccc4OC)CC3)cccn2c1=O`, the melting point is 151 to 153 °C.

As for `CN(C)C1CCCN(C(=O)c2ccc([N+](=O)[O-])cc2)c2ccccc21` (stereo not given), the melting point is 139 to 142 °C.

As to `O=S1(=O)N(CCBr)c2ccccc2N1c1ccc(Cl)cc1`, the melting point lay within 86 to 89 °C.

`O=C(CCCS(=O)c1ccccc1)NO` (stereo not given) had a melting point of 61 to 62 °C.

Take `O=C(CCl)Nc1ccc2c(c1NC(=O)c1cccs1)C(=O)c1ccccc1C2=O`: the melting point lay within 190 to 191 °C.

`c1cn(CCc2ccc3c(c2)-c2[nH]nc(-c4ccsc4)c2C3)cn1` registered a melting point of 212 to 216 °C.

The compound `O=c1[nH]nc2ccc(-c3ccccc3)nn12` returned a melting point of 255 to 257 °C.

In turn, `CC(=O)CNC(=O)Cc1ccccc1` came in with a melting point of 126 °C.

Regarding `CC(=O)Oc1cc(OC(C)=O)c2c(c1)Oc1ccccc1C2C#N` (stereo not given), the melting point fell in the range of 160 to 161 °C.

For `C#Cc1cc(Oc2cnc(NC(CO)CO)nc2N)c(C(C)C)cc1OC`, the melting point was in the range of 136 to 139 °C.

Take `COc1ccc(CN(C)CCCc2ccc(NC(=O)c3cccc4c(=O)c5ccccc5[nH]c34)cc2)cc1`: the melting point was found to be 155 °C.

In the case of `CCCCCCC(C)(C)c1cc(OCc2ccccc2)c2c(c1)OC(C)(C)CC2=O`, the melting point lay in the range of 52 to 52.5 °C.

For the compound `CCOC(=O)C1=C(C)NN=C(CC)C1c1cccc(Cl)c1` (stereo not given), the melting point was determined as 112 °C.

Consider `CN(O)C(=O)C=Cc1ccc(Cl)c(O)c1`, for which the melting point was 196 °C.

As to `N#CC1(c2cccs2)CC1`, the melting point was in the range of 118 to 122 °C.

As to `Cn1ncnc1COc1nn2c(-c3ccccc3F)nncc2c1I`, the melting point fell in the range of 218 to 219 °C.

In the case of `CCCOC(=O)c1cc(=O)c2c(OCc3ccc(OCc4ccc5ccccc5n4)cc3)c(Cl)ccc2o1`, the melting point fell in the range of 173 to 174 °C.

Take `CON=C(C#N)C(N)=O`: the melting point was in the range of 170 to 172 °C.

`COC(=O)c1c([N+](=O)[O-])cc(OC)c(OC)c1OC` registered a melting point of 74 to 76 °C.

In the case of `COc1cc2c3c([nH]c2c(Cl)c1Cl)C(=O)NCC3`, the melting point lay in the range of 263 to 264 °C.

In the case of `Nc1nnc(N2CCOCC2)s1`, the melting point fell in the range of 186 to 188 °C.

`Fc1cccc2c1OC1CN(Cc3ccccc3)CC1O2` (stereo not given) displayed a melting point of 80 to 81 °C.

On to `O=C(NC1CCN(C(=O)c2ccccc2)CC1)c1ccccc1Oc1ccc(Cl)cc1Cl`, for which the melting point was 63 to 66 °C.

As to `COC(=O)c1scc(-c2ccccc2)c1-c1ccc(SC)c(F)c1`, the melting point turned out to be 141 °C.

Take `CCCN1CC(C)=CC2=C1N1CN(OC)C=C1N=N2`: the melting point fell in the range of 163 to 165 °C.

Take `COc1ccc(N(C(=O)CN2C(=O)CC(=O)N(c3ccncc3)c3ccccc32)C(C)C)cc1`: the melting point fell in the range of 211 to 213 °C.

With `CCCCc1oc2ccc([N+](=O)[O-])cc2c1C(=O)c1ccc(OCCCCCN(CCCC)CCCC)cc1`, the melting point is 107 °C.

With `O=C(Nc1ccc(OC(F)(F)F)cc1)NC1CCN(C(=O)C(F)(F)F)CC1`, the melting point fell in the range of 150 to 154 °C.

In turn, `CC1CNCC1NC(=O)OC(C)(C)C` (stereo not given) yielded a melting point of 86.8 to 87 °C.

Compound `CC(=O)OCc1ccc(C=Cc2csc3ccccc23)s1` had a melting point of 66 to 68 °C.

Regarding `FC(F)(F)c1nc2ccnc(Cl)n2n1`, the melting point fell in the range of 47 to 48 °C.

For `O=c1[nH]c2ccccc2n1CCCN1CCC(O)(c2ccc(Cl)cc2)CC1`, the melting point was 134 °C.

Compound `CC(C)N1CC(COc2ccc([N+](=O)[O-])c(C=O)c2)OC1=O` (stereo not given) showed a melting point of 94 to 97 °C.

Regarding `CN1CCC(C2(O)c3ccccc3Oc3ccc(Cl)cc32)CC1` (stereo not given), the melting point is 206 to 208 °C.

Compound `CC(=O)Nc1cc2c(cc1[N+](=O)[O-])[C@@H](O)[C@H](Br)C(C)(C)O2` (relative stereo) displayed a melting point of 205 to 206 °C.

Compound `COCCN(CCOC)Cc1ccc(NC(=O)C2=Cc3cc(-c4ccc(C)cc4)ccc3OCC2)cc1` showed a melting point of 110 to 112 °C.

As for `Cc1cc(O)c(C)c2sc(N)nc12`, the melting point lay in the range of 199 to 201 °C.

`CCc1nn(C)c2[nH]c(=O)c3ccccc3c12` gave a melting point of 291 to 294 °C.

Compound `COC(=O)Cc1ccccc1OCc1ccc(N(Cc2nc(-c3ccccc3)oc2C)C(=O)OC(C)(C)C)cc1` yielded a melting point of 85 to 86 °C.

The compound `Nc1ccc(Oc2ccc(C3(c4ccc(Oc5ccc(N)cc5)cc4)CCC(c4ccccc4)CC3)cc2)cc1` showed a melting point of 90.7 to 92.2 °C.

For the compound `C=CCc1c(OC(C)=O)cc(C)c2c(C)cc(=O)oc12`, the melting point was determined as 166 °C.

As for `COc1ccc2[nH]c(C(=O)C34CC5CC(CC(C5)C3)C4)cc2c1`, the melting point lay in the range of 229 to 231 °C.
